Assay results taken from patent US8981112B2, “Inhibitors of β-secretase” (Boehringer Ingelheim International GmbH, priority 2012, dated 2015).

What was measured:
[1] = biological target: truncated human beta-secretase, BACE1 (amino acids 1-454) (Homo sapiens (Human), UniProt P56817); assay: BACE1 Assay (Assay 1), fluorescence quench assay; format: biochemical; details: read-out: BACE1 IC50 nM (assay 1)
Method: The substrate was dissolved at 1 mg/ml in DMSO.
The assay was performed in the presence of OptiMEM (supernatant collected over 24 h and cleared from cellular debris by centrifugation) containing the ectodomain of BACE1, 25 μl water containing the desired 2-fold concentration of test compound and 2% DMSO, 1 μM substrate peptide, 20 mM NaOAc, pH 4.4, and 0.04% Triton-X100 in a total assay volume of 50 μl in a 384 well plate. In general, 25 μl of compound dilution were given to the plate followed by the addition of 10 μl of BACE1 containing OptiMEM™ diluted 1:10 in water with 0.2% Triton X-100. The reaction was started with the addition of 15 μl substrate in NaOAc buffer. The reaction was incubated at rt (dark) in an Envision® multilabel reader (Perkin Elmer) and the cleavage of the substrate was recorded as kinetic for 60 min at ex: 485 nm, em: 538 nm. Blank wells containing no enzyme were included on each plate.
The intensity of fluorescence was regressed against time in order to derive velocities of reaction in all 384 wells. These velocities were used for calculating percent control using an uninhibited control containing 1% DMSO as 100% and blank control performed in the absence of enzyme as 0%. IC50 values were calculated by fitting percent control vs. test compound concentration using Assay Explorer.

hERG = hERG (Homo sapiens (Human), UniProt Q12809); assay: hERG-Channel Assay (Assay 3), whole-cell patch clamp; format: cell-based; details: human, HEK293 cells stably transfected with hERG, pH 7.4; 10 μM, HEK293 cells transfected with hERG
hERG, sequence (Q12809 whole entry): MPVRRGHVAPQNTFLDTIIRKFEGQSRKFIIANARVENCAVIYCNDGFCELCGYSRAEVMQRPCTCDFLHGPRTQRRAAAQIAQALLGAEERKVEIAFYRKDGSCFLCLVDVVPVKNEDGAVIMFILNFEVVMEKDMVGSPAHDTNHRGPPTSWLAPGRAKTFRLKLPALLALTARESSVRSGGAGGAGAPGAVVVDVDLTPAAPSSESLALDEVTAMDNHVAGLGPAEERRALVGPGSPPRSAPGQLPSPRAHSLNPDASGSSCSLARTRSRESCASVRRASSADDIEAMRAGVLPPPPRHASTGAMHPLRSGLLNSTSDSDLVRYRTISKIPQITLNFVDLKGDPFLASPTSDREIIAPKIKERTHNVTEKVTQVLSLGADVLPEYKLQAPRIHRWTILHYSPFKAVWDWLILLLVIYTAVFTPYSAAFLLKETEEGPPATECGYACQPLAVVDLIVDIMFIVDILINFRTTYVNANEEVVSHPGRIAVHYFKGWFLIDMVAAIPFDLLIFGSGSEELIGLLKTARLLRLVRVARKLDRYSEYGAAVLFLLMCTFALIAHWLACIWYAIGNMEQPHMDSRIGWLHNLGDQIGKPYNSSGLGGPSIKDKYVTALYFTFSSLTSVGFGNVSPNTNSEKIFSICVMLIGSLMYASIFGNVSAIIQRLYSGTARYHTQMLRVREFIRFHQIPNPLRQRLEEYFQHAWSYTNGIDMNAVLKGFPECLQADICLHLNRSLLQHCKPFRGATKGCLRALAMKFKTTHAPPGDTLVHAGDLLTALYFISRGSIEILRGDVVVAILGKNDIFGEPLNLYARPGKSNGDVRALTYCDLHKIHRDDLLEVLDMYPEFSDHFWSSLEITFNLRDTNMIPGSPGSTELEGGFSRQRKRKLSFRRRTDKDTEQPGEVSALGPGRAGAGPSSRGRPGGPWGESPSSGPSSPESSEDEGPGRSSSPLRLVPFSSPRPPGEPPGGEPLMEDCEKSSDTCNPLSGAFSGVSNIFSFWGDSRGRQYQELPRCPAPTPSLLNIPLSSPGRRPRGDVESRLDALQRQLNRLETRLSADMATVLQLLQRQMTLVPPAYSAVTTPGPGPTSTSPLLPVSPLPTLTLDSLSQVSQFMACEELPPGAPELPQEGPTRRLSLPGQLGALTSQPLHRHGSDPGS
From the text: hERG-Channel Assay (Assay 3)
HEK (human embryonic kidney) 293 cells were stably transfected with hERG cDNA.
Cells were superfused with a bath solution containing (mM): NaCl (137), KCl (4.0), MgCl2 (1.0), CaCl2 (1.8), Glucose (10), HEPES (10), pH 7.4 with NaOH. Patch pipettes were made from borosilicate glass tubing using a horizontal puller and filled with pipette solution containing (mM): K-aspartate (130), MgCl2 (5.0), EGTA (5.0), K2ATP (4.0), HEPES (10.0), pH 7.2 with KOH. Resistance of the microelectrodes was in the range between 2 and 5 MΩ.
Membrane currents were recorded using an EPC-10 patch clamp amplifier and PatchMaster software. hERG-mediated membrane currents were recorded at 35° C., using the whole-cell configuration of the patch-clamp technique. Transfected HEK293 cells were clamped at a holding potential of −60 mV and hERG-mediated inactivating tail currents were elicited using a pulse pattern with fixed amplitudes (activation/inactivation: 40 mV for 2000 ms; recovery: −120 mV for 2 ms; ramp to 40 mV in 2 ms; inactivating tail current: 40 mV for 50 ms) repeated at 15 s intervals. During each inter-pulse interval 4 pulses scaled down by a factor of 0.2 were recorded for a P/n leak subtraction procedure. Rs compensation was employed up to a level that safely allowed recording devoid of ringing.
The different concentrations of the test compound were applied sequentially on each of the different cells investigated. A steady state level of baseline current was measured for at least 6 sweeps prior to the application of the first test compound concentration.
The test compound was dissolved in DMSO to yield a master stock solution which was diluted further in DMSO to stock solutions needed for the lower concentrations. Final dilutions in extracellular buffer were prepared freshly from these stocks by a 1:1000 dilution step each before starting the experiments.
Peak current amplitudes were measured 3 ms after the ramp to +40 mV. For baseline and each concentration the peak currents of the three last sweeps before application of the next concentration were averaged. Residual currents (I/I0) were calculated for each cell as the fraction of actual average peak current and average baseline peak current. Results are presented as percent (%) inhibition (1−I/I0)*100% at 10 μM.

truncated human beta-secretase, BACE1 (amino acids 1-454), sequence (P56817 22-454): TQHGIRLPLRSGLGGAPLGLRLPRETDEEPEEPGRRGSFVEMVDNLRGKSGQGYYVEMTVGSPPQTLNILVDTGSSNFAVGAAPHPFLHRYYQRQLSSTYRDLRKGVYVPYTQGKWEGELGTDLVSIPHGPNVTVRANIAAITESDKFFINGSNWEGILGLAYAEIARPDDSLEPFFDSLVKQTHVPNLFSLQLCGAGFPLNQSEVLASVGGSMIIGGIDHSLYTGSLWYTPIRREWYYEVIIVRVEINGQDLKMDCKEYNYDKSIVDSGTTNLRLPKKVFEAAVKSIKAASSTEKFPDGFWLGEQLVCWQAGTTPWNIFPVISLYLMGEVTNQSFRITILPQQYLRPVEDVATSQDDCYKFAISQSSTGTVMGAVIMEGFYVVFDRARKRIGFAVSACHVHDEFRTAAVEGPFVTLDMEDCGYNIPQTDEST

| IC50 [1] [nM] | Structure (SMILES) | inhibition at 10 µM (hERG) [%] |
| --- | --- | --- |
| 5 | CO[C@H]1[C@H](C)C[C@@]2(Cc3ccc(C#N)cc3[C@]23N=C(N)N(C[C@H]2CCCO2)C3=O)C[C@@H]1C [Example 14] | 20 |
| 12 | CO[C@H]1[C@H](C)C[C@@]2(Cc3ccc(C#N)cc3[C@]23N=C(N)N(CC2(F)CCOCC2)C3=O)C[C@@H]1C [Example 23] | 16 |
| 8 | CO[C@H]1[C@H](C)C[C@@]2(Cc3ccc(C#N)cc3[C@]23N=C(N)N(C[C@H]2COCCO2)C3=O)C[C@@H]1C [Example 22] | 9 |
| 11 | CO[C@H]1[C@H](C)C[C@@]2(Cc3ccc(C#N)cc3[C@]23N=C(N)N(C[C@@H]2CCCO2)C3=O)C[C@@H]1C [Example 15] | 11 |
| 5 | CO[C@H]1[C@H](C)C[C@@]2(Cc3ccc(C#N)cc3[C@]23N=C(N)N(C[C@@H]2COCCO2)C3=O)C[C@@H]1C [Example 21] | 24 |
| 5 | CC[C@@H]1C[C@]2(CC[C@H]1OC)Cc1ccc(C#N)cc1[C@]21N=C(N)N(CC2(F)CCOCC2)C1=O [Example 4] | 0 |
| 5 | CO[C@H]1CC[C@@]2(Cc3ccc(C#N)cc3[C@]23N=C(N)N(CC2(C)COC2)C3=O)C[C@@H]1C [Example 8] | 16 |
| 9 | CO[C@H]1CC[C@@]2(Cc3ccc(C#N)cc3[C@]23N=C(N)N(Cc2ccncn2)C3=O)C[C@@H]1C [Example 9] | 16 |
| 8 | CC[C@@H]1C[C@]2(CC[C@H]1OC)Cc1ccc(C#N)cc1[C@]21N=C(N)N(CC2CCOCC2)C1=O [Example 2] | 22 |
| 14 | CO[C@H]1[C@H](C)C[C@@]2(Cc3ccc(C#N)cc3[C@]23N=C(N)N(CC(C)(C)F)C3=O)C[C@@H]1C [Example 17] | 12 |
| 9 | CC[C@@H]1C[C@@]2(Cc3ccc(C#N)cc3[C@]23N=C(N)N(CC(C)(C)F)C3=O)C[C@H](C)[C@H]1OC [Example 26] | 8 |
| 9 | CO[C@H]1[C@H](C)C[C@@]2(Cc3ccc(C#N)cc3[C@]23N=C(N)N(C[C@@H]2CCO2)C3=O)C[C@@H]1C (stereo in doubt) [Example 18] | 17 |
| 9 | CO[C@H]1[C@H](C)C[C@@]2(Cc3ccc(C#N)cc3[C@]23N=C(N)N(CC2COC2)C3=O)C[C@@H]1C [Example 13] | 18 |
| 3 | CO[C@H]1[C@H](C)C[C@@]2(Cc3ccc(C#N)cc3[C@]23N=C(N)N(C2COC2)C3=O)C[C@@H]1C [Example 12] | 11 |
